Source: patent US11845760B2, “PRMT5 inhibitors” (AMGEN INC., priority 2020, dated 2023)
pIC50: −log10 of the molar value. Where two headings read alike, the source gives them in different places.

Experiments:
HCT116 MTAP null cells = experiment: HCT116 MTAP null cell line proliferation (CellTiter-Glo cell viability, 6 days); format: cell-based; conditions: HCT116 MTAP null cells, 6 days of treatment, CellTiter-Glo cell viability, read-out: HCT-116 MTAP null IC50
In short: (§1)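 Isogenic HCT116 pair (both MTAP alleles knocked out vs parent) in RPMI 1640 + 10% FBS, seeded overnight at 37° C, 5% CO2, then exposed 6 days to 8- or 9-point 1:3 dilutions from 1 or 10 μM. CellTiter-Glo luminescence; IC50 from sigmoidal fit, Hill slope fixed −1, top 100%, or 4-parameter logistic.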

HCT116 WT cells = experiment: HCT116 WT cell line proliferation (CellTiter-Glo cell viability, 6 days); format: cell-based; conditions: HCT116 WT (parent) cells, 6 days of treatment, CellTiter-Glo cell viability, read-out: HCT-116 WT IC50
In short: as §1

| pIC50 (HCT116 MTAP null cells; HCT116-MTAP null, 144 h) | pIC50 (HCT116 WT cells; Homo sapiens, HCT-116, 144 h) | pIC50 (HCT116 MTAP null cells) | pIC50 (HCT116 WT cells) | Structure (SMILES) |
| --- | --- | --- | --- | --- |
| 7.77 | 6.25 |  |  | CC1(C)CN(C(=O)c2cc3c4c(c(N)nc3cc2F)COC4)C[C@@H]1c1ccc(C(F)(F)F)cc1 (single isomer, unassigned) [Example 473] |
| < 6.00 | < 5.00 |  |  | Cc1ccc(C2COCCN2C(=O)c2ccc3nc(N)c4c(c3c2)COC4)cn1 (racemic) [Example 512, (4-amino-1,3-dihydrofuro[3,4-c]quinolin-8-yl)-[rac-(3R)-3-(6-methyl-3-pyridyl)morpholin-4-yl]methanone] |
| 7.02 | 5.67 |  |  | CC(C)Oc1ccc([C@@H]2COC[C@H](C)N2C(=O)c2cc3c4c(c(N)nc3cn2)COC4)cn1 (racemic) [Example 306, (4-amino-1,3-dihydrofuro[3,4-c][1,7]naphthyridin-8-yl)((3R,5S)-3-methyl-5-(6-(2-propanyloxy)-3-pyridinyl)-4-morpholinyl)methanone and (4-amino-1,3-dihydrofuro[3,4-c][1,7]naphthyridin-8-yl)((3S,5R)-3-methyl-5-(6-(2-propanyloxy)-3-pyridinyl)-4-morpholinyl)methanone] |
| 7.92 | 6.47 |  |  | Cn1ncc2c(N)nc3cc(F)c(C(=O)N4CCOC[C@@H]4c4ccc(C(F)(F)F)cc4)cc3c21 [Example 420, (4-amino-7-fluoro-1-methyl-1H-pyrazolo[4,3-c]quinolin-8-yl)((3S)-3-(4-(trifluoromethyl)phenyl)-4-morpholinyl)methanone] |
| 7.43 | 6.16 |  |  | Nc1nc2cnc(C(=O)N3CCOC[C@@H]3c3ccc(C(F)(F)F)cc3)cc2c2cnccc12 [Example 501, (5-aminopyrido[4,3-c][1,7]naphthyridin-9-yl)((3S)-3-(4-(trifluoromethyl)phenyl)-4-morpholinyl)methanone] |
| 6.23 | 4.85 |  |  | C[C@H]1OCc2c1c(N)nc1ccc(C(=O)N3C[C@@H](c4ccc(F)cc4)C(C)(C)C3)cc21 (single isomer, unassigned) [Example 462] |
| 8.15 | 6.84 |  |  | Cn1ncc2c(N)nc3cc(Cl)c(C(=O)N4C[C@@H](CO)[C@H](c5ccc(C(F)(F)F)cc5F)C4)cc3c21 [Example 449, (4-amino-7-chloro-1-methyl-1H-pyrazolo[4,3-c]quinolin-8-yl)((3R,4S)-3-(2-fluoro-4-(trifluoromethyl)phenyl)-4-(hydroxymethyl)-1-pyrrolidinyl)methanone] |
| 6.01 | 4.51 |  |  | C[C@H]1OCc2c1c(N)nc1ccc(C(=O)N3C[C@H](c4ccc(Cl)cc4)[C@@H](O)C3)cc21 (single isomer, unassigned) [Example 467] |
| 7.30 | 5.82 |  |  | C[C@H]1OCc2c1c(N)nc1ccc(C(=O)N3[C@@H](C)COC[C@H]3c3ccc(OC(F)(F)F)cc3F)cc21 (racemic) [Example 329, ((3R)-4-amino-3-methyl-1,3-dihydrofuro[3,4-c]quinolin-8-yl)((3R,5S)-3-(2-fluoro-4-(trifluoromethoxy)phenyl)-5-methyl-4-morpholinyl)methanone and ((3R)-4-amino-3-methyl-1,3-dihydrofuro[3,4-c]quinolin-8-yl)((3S,5R)-3-(2-fluoro-4-(trifluoromethoxy)phenyl)-5-methyl-4-morpholinyl)methanone] |

The remaining lines, values behind:

| Structure (SMILES) | pIC50 (HCT116 MTAP null cells; HCT116-MTAP null, 144 h) | pIC50 (HCT116 WT cells; Homo sapiens, HCT-116, 144 h) | pIC50 (HCT116 MTAP null cells) | pIC50 (HCT116 WT cells) |
| --- | --- | --- | --- | --- |
| CCOc1ccc(C2COCCN2C(=O)c2cc3c4c(c(N)nc3cc2F)COC4)nn1 (racemic) [Example 392, (4-amino-7-fluoro-1,3-dihydrofuro[3,4-c]quinolin-8-yl)((3R)-3-(6-ethoxy-3-pyridazinyl)-4-morpholinyl)methanone and (4-amino-7-fluoro-1,3-dihydrofuro[3,4-c]quinolin-8-yl)((3S)-3-(6-ethoxy-3-pyridazinyl)-4-morpholinyl)methanone] | 6.67 | < 5.00 |  |  |
| Nc1nc2cc(F)c(C(=O)N3CCOCC3c3ccc(C(F)(F)F)cn3)cc2c2c1COC2 (racemic) [Example 351, (4-amino-7-fluoro-1,3-dihydrofuro[3,4-c]quinolin-8-yl)((3R)-3-(5-(trifluoromethyl)-2-pyridinyl)-4-morpholinyl)methanone and (4-amino-7-fluoro-1,3-dihydrofuro[3,4-c]quinolin-8-yl)((3S)-3-(5-(trifluoromethyl)-2-pyridinyl)-4-morpholinyl)methanone] | 6.89 | 5.22 |  |  |
| Nc1nc2ccc(C(=O)N3CCOC[C@@H]3c3ccc(C(F)(F)F)nc3)cc2c2c1COC2 (single isomer, unassigned) [Example 609] | 6.68 | 5.04 |  |  |
| Nc1nc2cnc(C(=O)N3CCOC[C@@H]3c3ccc(OC(F)F)cn3)cc2c2c1COC2 [Example 516, (4-amino-1,3-dihydrofuro[3,4-c][1,7]naphthyridin-8-yl)((3S)-3-(5-(difluoromethoxy)-2-pyridinyl)-4-morpholinyl)methanone] | 6.68 | 5.04 |  |  |
| C[C@@H]1CN(C(=O)c2ccc3nc(N)c4c(c3c2)COC4)[C@@H](c2ccc(OC(F)(F)F)cc2)CO1 (single isomer, unassigned) [Example 585] | < 6.00 | < 5.00 |  |  |
| Cc1ccc([C@H]2COCCN2C(=O)c2ccc3nc(N)c4c(c3c2)COC4)cn1 (single isomer, unassigned) [Example 606] | 5.99 | < 5.00 |  |  |
| Nc1nc2ccc(C(=S)N3CCOC[C@@H]3c3ccc(C(F)(F)F)cc3)cc2c2c1COC2 [Example 625, (S)-(4-amino-1,3-dihydrofuro[3,4-c]quinolin-8-yl)(3-(4-(trifluoromethyl)phenyl)morpholino)methanethione] | 6.05 | 5.14 |  |  |
| COc1ccc([C@H]2COC[C@@H](C)N2C(=O)c2cc3c4c(c(N)nc3cc2F)[C@@H](C)OC4)nn1 [Example 552, ((3R)-4-amino-7-fluoro-3-methyl-1,3-dihydrofuro[3,4-c]quinolin-8-yl)((3S,5R)-3-(6-methoxy-3-pyridazinyl)-5-methyl-4-morpholinyl)methanone] | 7.89 | 6.43 |  |  |
| Nc1nc2cnc(C(=O)N3CCOCC3c3ccc(F)c(C(F)(F)F)c3)cc2c2c1COC2 (racemic) [Example 349, (4-amino-1,3-dihydrofuro[3,4-c][1,7]naphthyridin-8-yl)((3R)-3-(4-fluoro-3-(trifluoromethyl)phenyl)-4-morpholinyl)methanone and (4-amino-1,3-dihydrofuro[3,4-c][1,7]naphthyridin-8-yl)((3S)-3-(4-fluoro-3-(trifluoromethyl)phenyl)-4-morpholinyl)methanone] |  |  | 6.30 | 4.68 |
| C[C@H]1OCc2c1c(N)nc1ccc(C(=O)N3CC(c4ccccc4)C4CCCC43)cc21 (stereo partly drawn) [Example 395, ((3R)-4-amino-3-methyl-1,3-dihydrofuro[3,4-c]quinolin-8-yl)(3-phenylhexahydrocyclopenta[b]pyrrol-1(2H)-yl)methanone] | 6.52 | 5.08 |  |  |
| C[C@H]1OCc2c1c(N)nc1cnc(C(=O)N3CCOC[C@H]3c3ccc(F)c(C(F)(F)F)c3)cc21 (racemic) [Example 356, ((3R)-4-amino-3-methyl-1,3-dihydrofuro[3,4-c][1,7]naphthyridin-8-yl)((3R)-3-(4-fluoro-3-(trifluoromethyl)phenyl)-4-morpholinyl)methanone and ((3R)-4-amino-3-methyl-1,3-dihydrofuro[3,4-c][1,7]naphthyridin-8-yl)((3S)-3-(4-fluoro-3-(trifluoromethyl)phenyl)-4-morpholinyl)methanone] | 6.59 | < 5.00 |  |  |
| Cn1ncc2c(N)nc3cc(Cl)c(C(=O)N4CC[C@H](c5ccc(C(F)(F)F)cc5)C4)cc3c21 [Example 443, (4-amino-7-chloro-1-methyl-1H-pyrazolo[4,3-c]quinolin-8-yl)((3R)-3-(4-(trifluoromethyl)phenyl)-1-pyrrolidinyl)methanone] | 7.89 | 6.10 |  |  |
| Cn1ncc2c3cc(C(=O)N4CCOC[C@@H]4c4ccc(OC(F)F)cn4)ccc3nc(N)c21 [Example 369, (4-amino-3-methyl-3H-pyrazolo[3,4-c]quinolin-8-yl)((3S)-3-(5-(difluoromethoxy)-2-pyridinyl)-4-morpholinyl)methanone] | 6.47 | 4.81 |  |  |
| Nc1nc2cnc(C(=O)N3CCOC[C@@H]3c3cnc(C(F)(F)F)nc3)cc2c2c1COC2 (single isomer, unassigned) [Example 612] | < 6.00 | < 5.00 |  |  |
| Nc1nc2ccc(C(=O)N3CCOCC3c3ccc(C(F)(F)F)nc3)cc2c2c1COC2 (racemic) [Example 513, (4-amino-1,3-dihydrofuro[3,4-c]quinolin-8-yl)-[rac-(3S)-3-[6-(trifluoromethyl)-3-pyridyl]morpholin-4-yl]methanone] | 6.42 | < 5.00 |  |  |
| C[C@@H]1COC[C@H](c2ccc(OC(F)(F)F)cn2)N1C(=O)c1cc2c3c(c(N)nc2cn1)[C@@H](C)OC3 (racemic) [Example 380, ((3R)-4-amino-3-methyl-1,3-dihydrofuro[3,4-c][1,7]naphthyridin-8-yl)((3R,5S)-3-methyl-5-(5-(trifluoromethoxy)-2-pyridinyl)-4-morpholinyl)methanone and ((3R)-4-amino-3-methyl-1,3-dihydrofuro[3,4-c][1,7]naphthyridin-8-yl)((3S,5R)-3-methyl-5-(5-(trifluoromethoxy)-2-pyridinyl)-4-morpholinyl)methanone] | 7.32 | 6.04 |  |  |
